Legend:
[1] = system: recombinant human anti-SARS-CoV antibody 03-018; type: binding; set-up: Binding of antibody 03-018 to linear peptides of the N protein of SARS-CoV Urbani / Binding of antibody 03-018 to looped/cyclic peptides of the N protein of SARS-CoV Urbani: unit not given here
[2] = system: rabbit serum obtained by immunizing a rabbit with the SARS-CoV strain Frankfurt 1; type: binding; set-up: Binding of a rabbit serum to linear peptides / Binding of a rabbit serum to looped peptides / Rabbit serum linear peptides / Rabbit serum looped peptides / Binding of a rabbit serum to linear peptides of protein N of SARS-CoV Urbani (Rabbit serum linear peptides) / Binding of a rabbit serum to looped/cyclic peptides of protein N of SARS-CoV Urbani (Rabbit serum looped peptides): unit not given here
[3] = system: control sera (pooled serum of ten healthy LUMC hospital workers; commercial negative donor pooled serum from the Dutch bloodbank); type: binding, human; set-up: Binding of Control serum LUMC to linear peptides / Binding of Control serum Blood-bank to linear peptides / Binding of Control serum LUMC to looped peptides / Binding of Control Serum Blood-Bank to Looped peptides / Binding of Control serum LUMC to linear peptides of the protein M of SARS-CoV Urbani / Binding of Control serum Blood-bank to linear peptides of the protein M of SARS-CoV Urbani / Binding of Control serum LUMC to looped peptides of the protein M of SARS-CoV Urbani / Binding of Control Serum Blood-Bank to Looped peptides of the protein M of SARS-CoV Urbani: unit not given here
[4] = system: antibodies in sera from SARS patients (sera 1a, 1b, 2, 6, 37, 62, London, SARS-yellow, SARS-green); type: binding, human; set-up: Binding of serum 6 to linear peptides of protein X1 of SARS-CoV Urbani / Binding of serum 37 to linear peptides of protein X1 of SARS-CoV Urbani / Binding of serum 6 to looped/cyclic peptide (PEPSCAN-ELISA) / Binding of serum 37 to looped/cyclic peptide (PEPSCAN-ELISA) / Binding of serum 37 to looped/cyclic peptides of protein X1 of SARS-CoV Urbani / Binding of serum 6 to linear peptides of protein X2 / Binding of serum 37 to linear peptides of protein X2 / Binding of serum 37 to looped/cyclic peptides of protein X2 of SARS-CoV Urbani / Binding of serum 6 to linear peptides of protein M of SARS-CoV Urbani / Binding of serum 37 to linear peptides of protein M of SARS-CoV Urbani / Binding of serum 6 to looped/cyclic peptides of protein M of SARS-CoV Urbani / Binding of serum 37 to looped/cyclic peptides of protein M of SARS-CoV Urbani / Binding of serum 6 to linear peptides of protein X3 of SARS-CoV Urbani / Binding of serum 37 to linear peptides of protein X3 of SARS-CoV Urbani / Binding of serum 37 to looped/cyclic peptides of protein X3 of SARS-CoV Urbani / Binding of serum 6 to linear peptides of protein X4 of SARS-CoV Urbani / Binding of serum 37 to linear peptides of protein X4 of SARS-CoV Urbani / Binding of serum 37 to looped/cyclic peptides of protein X4 of SARS-CoV Urbani / Binding of serum 6 to linear peptides of protein X5 of SARS-CoV Urbani / Binding of serum 37 to linear peptides of protein X5 of SARS-CoV Urbani / Binding of serum 37 to looped/cyclic peptides of protein X5 of SARS-CoV Urbani / Binding of serum 6 to linear peptides of protein N of SARS-CoV Urbani / Binding of serum 37 to linear peptides of protein N of SARS-CoV Urbani / Binding of serum 6 to linear peptide (PEPSCAN-ELISA) / Binding of serum 1a to looped/cyclic peptides of protein N of SARS-CoV Urbani / Binding of serum 1b to looped/cyclic peptides of protein N of SARS-CoV Urbani / Binding of serum 2 to looped/cyclic peptides of protein N of SARS-CoV Urbani / Binding of serum 6 to looped/cyclic peptides of protein N of SARS-CoV Urbani / Binding of serum 37 to looped/cyclic peptides of protein N of SARS-CoV Urbani / Binding of serum 62 to looped/cyclic peptides of protein N of SARS-CoV Urbani / Binding of serum London to looped/cyclic peptides of protein N of SARS-CoV Urbani / Binding of serum SARS-green to looped/cyclic peptides of protein N of SARS-CoV Urbani: unit not given here

| Sequence | Binding of antibody 03-018 to linear peptides of the N protein of SARS-CoV Urbani [1] | Binding of antibody 03-018 to looped/cyclic peptides of the N protein of SARS-CoV Urbani [1] | Binding of a rabbit serum to linear peptides of protein N of SARS-CoV Urbani (Rabbit serum linear peptides) [2] | Binding of a rabbit serum to looped/cyclic peptides of protein N of SARS-CoV Urbani (Rabbit serum looped peptides) [2] | Binding of Control Serum Blood-Bank to Looped peptides [3] | Binding of Control serum Blood-bank to linear peptides [3] | Binding of Control serum LUMC to linear peptides [3] | Binding of Control serum LUMC to looped peptides [3] | Binding of serum 1a to linear peptide (PEPSCAN-ELISA) [4] | Binding of serum 1a to looped/cyclic peptides of protein N of SARS-CoV Urbani [4] | Binding of serum 1b to linear peptide (PEPSCAN-ELISA) [4] | Binding of serum 1b to looped/cyclic peptides of protein N of SARS-CoV Urbani [4] | Binding of serum 2 to linear peptide (PEPSCAN-ELISA) [4] | Binding of serum 2 to looped/cyclic peptides of protein N of SARS-CoV Urbani [4] | Binding of serum 6 to looped/cyclic peptides of protein N of SARS-CoV Urbani [4] | Binding of serum 37 to looped/cyclic peptides of protein N of SARS-CoV Urbani [4] | Binding of serum 62 to looped/cyclic peptides of protein N of SARS-CoV Urbani [4] | Binding of serum London to looped/cyclic peptides of protein N of SARS-CoV Urbani [4] | Binding of serum SARS-green to looped/cyclic peptides of protein N of SARS-CoV Urbani [4] | Binding of serum SARS-yellow to looped/cyclic peptides of protein N of SARS-CoV Urbani [4] | also measured |
| --- | --- | --- | --- | --- | --- | --- | --- | --- | --- | --- | --- | --- | --- | --- | --- | --- | --- | --- | --- | --- | --- |
| QASSRSSSRSRGNSR | 0.1 | 0.2 | 0.3 | 1.1 | 0.5 | 0.7 | 0.7 | 0.5 | 0.2 | 0.3 | 0.1 | 0.2 | 0.3 | 0.4 | 0.3 | 0.5 | 0.4 | 0.4 | 0.1 | 0.4 | Binding of serum 6 to linear peptide (PEPSCAN-ELISA) [4]: 0.3; Binding of serum 37 to linear peptide (PEPSCAN-ELISA) [4]: 0.6; Binding of serum 62 to linear peptide (PEPSCAN-ELISA) [4]: 0.6; Binding of serum London to linear peptide (PEPSCAN-ELISA) [4]: 0.5; Binding of serum SARS-green to linear peptide (PEPSCAN-ELISA) [4]: 0.2; Binding of serum SARS-yellow to linear peptide (PEPSCAN-ELISA) [4]: 0.6 |
| RGNSRNSTPGSSRGN | 0.1 | 0.2 | 0.2 | 0.7 | 0.6 | 0.8 | 0.6 | 0.6 | 0.7 | 0.8 | 0.4 | 0.6 | 0.2 | 0.4 | 0.4 | 0.6 | 0.5 | 0.4 | 0.3 | 0.5 | Binding of serum 6 to linear peptide (PEPSCAN-ELISA) [4]: 0.2; Binding of serum 37 to linear peptide (PEPSCAN-ELISA) [4]: 0.7; Binding of serum 62 to linear peptide (PEPSCAN-ELISA) [4]: 0.7; Binding of serum London to linear peptide (PEPSCAN-ELISA) [4]: 0.4; Binding of serum SARS-green to linear peptide (PEPSCAN-ELISA) [4]: 0.2; Binding of serum SARS-yellow to linear peptide (PEPSCAN-ELISA) [4]: 0.8 |
| PINTNSGPDDQIGYY | 0.1 | 0.2 | 0.1 | 0.4 | 0.5 | 0.7 | 0.7 | 0.6 |  | 0.4 |  | 0.4 |  | 0.4 | 0.2 | 0.7 | 0.5 | 0.4 | 0.8 | 0.5 | Binding of serum 1a to linear peptides of protein N of SARS-CoV Urbani [4]: 0.2; Binding of serum 1b to linear peptides of protein N of SARS-CoV Urbani [4]: 0.2; Binding of serum 2 to linear peptides of protein N of SARS-CoV Urbani [4]: 0.2; Binding of serum 6 to linear peptides of protein N of SARS-CoV Urbani [4]: 0.2; Binding of serum 37 to linear peptides of protein N of SARS-CoV Urbani [4]: 0.9; Binding of serum 62 to linear peptides of protein N of SARS-CoV Urbani [4]: 0.7; Binding of serum London to linear peptides of protein N of SARS-CoV Urbani [4]: 0.4; Binding of serum SARS-green to linear peptides of protein N of SARS-CoV Urbani [4]: 0.3; Binding of serum SARS-yellow to linear peptides of protein N of SARS-CoV Urbani [4]: 0.6 |
| SRGNSPARMASGGGE | 0.1 | 0.2 | 0.1 | 0.2 | 0.5 | 0.8 | 0.8 | 0.4 | 0.3 | 0.2 | 0.2 | 0.1 | 0.1 | 0.2 | 0.1 | 0.4 | 0.3 | 0.3 | 0.2 | 0.1 | Binding of serum 6 to linear peptide (PEPSCAN-ELISA) [4]: 0.2; Binding of serum 37 to linear peptide (PEPSCAN-ELISA) [4]: 0.6; Binding of serum 62 to linear peptide (PEPSCAN-ELISA) [4]: 0.6; Binding of serum London to linear peptide (PEPSCAN-ELISA) [4]: 0.6; Binding of serum SARS-green to linear peptide (PEPSCAN-ELISA) [4]: 0.2; Binding of serum SARS-yellow to linear peptide (PEPSCAN-ELISA) [4]: 0.6 |

Reference: patent publication US20070128217A1 (priority 2003, published 2007)
